{
  "source": "patent US10596223B2",
  "about": "“JNK inhibitor molecules for treatment of various diseases” (Xigen Inflammation Ltd., priority 2011, dated 2020)",
  "key": {"[1]": {"system": "Primary Rat Whole Blood Cells", "test": "Cytokine release in rat whole blood (LPS or PMA+ionomycin, 4 h)", "format": "cell-based", "conditions": "10 μM inhibitor, three activator concentrations", "procedure": "Given are the results for the control, 1 μM of SEQ ID NO: 172, 3 μM of SEQ ID NO: 172, and 10 μM of SEQ ID NO: 172 at different levels of LPS (ng/ml).\nFIG. 17 Dose dependent inhibition of IL-2 release in rat whole blood stimulated with PMA+ionomycin. JNK inhibitor with SEQ ID NO: 172 was added at three different concentrations, namely 1, 3 and 10 μM 1 h before stimulation with PMA+ionomycin. Three doses of activators were added (25/500 ng/mL, 50/750 ng/mL and 50/1000 ng/mL) for 4 h. IL-2 release was assessed in supernatant.\nWhole blood is collected from anesthetized rat or human healthy volunteers using a venipuncture connected to a pre-labeled vacuum tube containing sodium citrate. Tubes are gently mixed by inversion 7-8 times; and are then kept at RT until stimulation. JNK inhibitor of SEQ ID NO: 172_is prepared […] concentrated in PBS, and 30 μl/well of mix is added into 96-well plate. Whole blood is diluted by 1:2 in PBS and 120 μl of diluted blood is added in each well where either PBS alone or JNK inhibitor of SEQ ID NO: 172 has been previously added. Whole blood is incubated at 37° C.; 85 rpm (Stuart Orbital incubator S1500) for 60 min. […] Cytokine (IL-6, IL-2, IFNγ and TNFα) were then measured using standard Elisa kits (e.g. from R&D Systems: DuoSet Elisas; or from BD Biosciences: BD Opteia Set Elisa). Results are expressed as pg/ml of supernatant of the measured cytokine. […]"}, "[2]": {"system": "established type II collagen arthritis in rats", "format": "in vivo, rat", "description": "Rat collagen arthritis is an experimental model of polyarthritis that has been widely used for preclinical testing of numerous anti-arthritic agents that are either under preclinical or clinical investigation or are currently used as therapeutics in this disease. The hallmarks of this model are reliable onset and progression of robust, easily measurable polyarticular inflammation, marked cartilage destruction in association with pannus formation, and mild to moderate bone resorption and periosteal bone proliferation.\nIntravenous (IV) efficacy of the JNK inhibitor of SEQ ID NO: 172 administered daily (QD) for 14 days (arthritis d1-14) for inhibition of the inflammation (paw swelling), cartilage destruction, and bone resorption that occurs in established type II collagen arthritis in rats was determined in said experimental model. […]\nFemale Lewis rats with established type II collagen arthritis were treated daily (QD) on arthritis days 1-14 by the intravenous (IV) route with vehicle (NaCl), SEQ ID NO: 172 (0.01, 0.1, 1, or 5 mg/kg), or the reference compound dexamethasone (Dex, 0.05 mg/kg). […] Efficacy evaluation was based on animal body weights, daily ankle caliper measurements, ankle diameter expressed as area under the curve (AUC), terminal hind paw weights, and histopathologic evaluation of ankles and knees of selected groups. […]"}},
  "note": "Square brackets hold non-standard residues; d marks the D form. Peptide text beside a SMILES is read from it.",
  "data": [
    {"compound": "CC(C)C[C@H](NC(=O)[C@H](CC(N)=O)NC(=O)[C@H](CC(C)C)NC(=O)[C@@H](NC(=O)[C@@H](C)NC(=O)[C@@H]1CCCN1C(=O)[C@H](CCCNC(=N)N)NC(=O)[C@@H](CCCCN)NC(=O)[C@@H]1CCCN1C(=O)[C@H](CCCNC(=N)N)NC(=O)[C@@H](CCCNC(=N)N)NC(=O)[C@H](CCCNC(=N)N)NC(=O)[C@H](CCCNC(=N)N)NC(=O)[C@H](CCC(N)=O)NC(=O)[C@@H](CCCNC(=N)N)NC(=O)[C@H](CCCNC(=N)N)NC(=O)[C@H](CCCCN)NC(=O)[C@H](CCCCN)NC(=O)[C@H](N)CCCNC(=N)N)[C@@H](C)O)C(=O)N[C@H](Cc1ccccc1)C(N)=O", "note": "[SEQ ID NO: 172, rKKRrQRRrRPkRPaTLNLf] (H-[dR]KKR[dR]QRR[dR]RP[dK]RP[dA]TLNL[dF]-NH2; N-terminus assumed)", "values": [
      {"measurement": "PMA-iono-induced IL-2 release", "setting": "[1]", "result": "did efficiently reduce PMA-iono-induced IL-2 release"},
      {"measurement": "clinical and histopathology parameters (conclusion)", "setting": "[2]; 5 mg/kg IV QD 14 days", "result": "significant beneficial effect on the clinical and histopathology parameters"},
      {"measurement": "daily ankle diameter measurements vs disease controls", "setting": "[2]; 5 mg/kg IV QD, p<0.05 days 4-12", "result": "reduced toward normal"}
    ]}
  ]
}
